Experimental findings from US20160280789A1, “METHODS FOR TREATING HEMATOLOGICAL MALIGNANCIES” (CHILDREN'S HOSPITAL LOS ANGELES, priority 2013, published 2016) are described below.

“Also recorded” adds a separate entry of the source. Read-outs that look alike come from different tables or passages of the source.

In general, viability refers to a read-out of living cells in per cent, often relative to untreated cells.

Experiment [1] relates to ITGA6fl/fl BCR/ABL1+ pre-B ALL cells. Briefly: In vivo model of BCR-ABL1-transformed ITGA6fl/fl ALL in NOD/SCID mice, survival with Nilotinib. Details: species or system mouse.
Method: A, Bioluminescence imaging was performed at indicated days post-ALL cells injection. […] C, D ITGA6 deletion was confirmed by FACS in BM cells of mice sacrificed at time of death of leukemia. E, Residual leukemia cells were determined in spleen and bone marrow by RT-PCR and F, PCR in the groups EmptyER^T2+Nilotinib and CreER^T2+Nilotinib.
Bone marrow cells from ITGA6fl/fl mice (Georges-Labouesse et al.) mice were harvested and retrovirally transformed by BCR-ABL1 (Pear et al.) in the presence of 10 ng IL7 (Peprotech) in Retronectin-(Takara) coated plates. All BCR-ABL1-transformed ALL cells derived from bone marrow of mice were maintained in Iscove's modified Dulbecco's medium (IMDM) with GlutaMAX containing 20% fetal bovine serum (Atlanta Biologica), 100 IU/ml penicillin, 100 μg/ml streptomycin (Invitrogen), and 50 μM 2-mercaptoethanol (Sigma-Aldrich) at 37° C. in a humidified incubator with 5% CO2. After cytokine-independent proliferation, BCR-ABL1 transformed ITGA6fl/fl cells were transduced retrovirally with EmptyERT2 or CreERT2. […] D-Luciferin (Promega) dissolved in PBS was injected intraperitoneally at a dose of 2.5 mg per mouse 15 minutes before measuring the luminescence signal. […] Mice were monitored for weight loss and other leukemia symptoms. Moribund mice were sacrificed and tissues were analyzed for leukemia cell infiltration to confirm leukemia as the cause of death.
To determine the effect of VLA6 deletion on leukemia progression in vivo, ITGA6 competent ITGA6fl/fl BCR/ABL1+ pre-B (B220+CD19+) CreERT2+ or control transduced ALL cells were lentivirally luciferase labeled and transferred into NOD/SCID mice (FIG. 6A). […] For this purpose, splenic cells and bone marrow cells of leukemia recipient animals were isolated and analyzed for BCR-ABL1 mRNA expression by RT-PCR (FIG. 6E) and BCR-ABL1 expression in genomic DNA by PCR (FIG. 6F).
The subject of experiment [2] is BCR-ABL-1+ ITGA6fl/fl cells. The experiment in a line: cells. Conditions: Mus musculus, 72 h.
Method: Viability of CreER^T2 and EmptyER^T2 ITGA6^f/f BCR-ABL1^+ CreER^T2 and EmptyER^T2 cells were plated onto tissue culture plates (no further ligand coated) and treated with Tamoxifen (1.5 μM) and Nilotinib (0.02 μM or 0.2 μM) for 1 to 3 days. Cell viability was determined by trypan blue exclusion. Y axis indicates cell viability relative to initial.
Bone marrow cells from ITGA6fl/fl mice (Georges-Labouesse et al.) mice were harvested and retrovirally transformed by BCR-ABL1 (Pear et al.) in the presence of 10 ng IL7 (Peprotech) in Retronectin-(Takara) coated plates. All BCR-ABL1-transformed ALL cells derived from bone marrow of mice were maintained in Iscove's modified Dulbecco's medium (IMDM) with GlutaMAX containing 20% fetal bovine serum (Atlanta Biologica), 100 IU/ml penicillin, 100 μg/ml streptomycin (Invitrogen), and 50 μM 2-mercaptoethanol (Sigma-Aldrich) at 37° C. in a humidified incubator with 5% CO2. After cytokine-independent proliferation, BCR-ABL1 transformed ITGA6fl/fl cells were transduced retrovirally with EmptyERT2 or CreERT2. […] After 1 μg/ml puromycin selection, VLA6 deletion was induced in vitro by addition of 1.0 μM tamoxifen (Sigma-Aldrich). […]

With `Cc1cn(-c2cc(NC(=O)c3ccc(C)c(Nc4nccc(-c5cccnc5)n4)c3)cc(C(F)(F)F)c2)cn1` [Nilotinib], the “Median survival time (MST), CreERT2 (ITGA6 deleted) leukemia” value in experiment [1] (n=5, Tamoxifen-induced in vivo deletion) was “survived; also recorded: undefined”. Besides, the “Median survival time (MST), EmptyERT2 (ITGA6 competent) leukemia” value in experiment [1] (n=6, days post-leukemia injection) was 39.5 days. Moreover, the viability at 0.02 µM in experiment [2] (read-out: Viability of leukemia cells, CreERT2 (ITGA6 deleted)) was 10.2%; in experiment [2] (read-out: Viability of leukemia cells, EmptyERT2 (ITGA6 competent)), 83.7%.
